Consider two compounds from US20120329862A1, “NOVEL COMPOUND HAVING INHIBITORY EFFECT ON LIPASE” (SUNTORY HOLDINGS LIMITED, priority 2004, published 2012).

Data set [1] has as its target T1, porcine pancreatic lipase (Sus scrofa, UniProt P00591).
T1 construct: purchased Sigma
T1 sequence (P00591 1-450): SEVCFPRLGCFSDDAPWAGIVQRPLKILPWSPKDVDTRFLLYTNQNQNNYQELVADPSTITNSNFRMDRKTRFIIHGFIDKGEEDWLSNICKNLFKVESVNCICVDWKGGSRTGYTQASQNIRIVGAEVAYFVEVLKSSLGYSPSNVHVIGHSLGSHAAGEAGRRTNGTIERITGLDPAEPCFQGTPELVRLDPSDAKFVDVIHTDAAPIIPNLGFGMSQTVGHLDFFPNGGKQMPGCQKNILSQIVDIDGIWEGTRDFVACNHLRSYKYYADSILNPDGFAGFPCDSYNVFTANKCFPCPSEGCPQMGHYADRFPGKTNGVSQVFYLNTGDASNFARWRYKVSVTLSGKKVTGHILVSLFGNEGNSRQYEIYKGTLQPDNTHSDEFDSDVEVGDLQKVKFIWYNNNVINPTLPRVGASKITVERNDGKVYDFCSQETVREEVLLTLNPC
As to the kind of experiment: Lipase inhibitory activity measurement (4-UMO fluorescent substrate). In kind it is biochemical. The following applies: 4-UMO substrate, pH 8.0, 25° C., 30 minutes. As for the experimental part:
Lipase activity measurement was carried out by using oleic acid ester of fluorescent 4-methylumbelliferone (4-UMO) as a substrate, and measuring the fluorescence of 4-methylumbelliferone produced by reaction.
In the measurement, 13 mM Tris-HCl containing 150 mM NaCl and 1.36 mM CaCl2 was used as a buffer (pH 8.0). Substrate 4-UMO (Sigma) was prepared as 0.1M solution in DMSO and diluted 1000-fold with the buffer mentioned above. Similarly, lipase (porcine pancreatic lipase (Sigma)) was prepared as 400 U/ml solution in the buffer mentioned above and used in enzymatic measurement.
50 μl of the 4-UMO buffer solution and 25 μl of distilled water (or sample solution) were placed in a 96-well microplate and mixed at 25° C., followed by adding 25 μl of the lipase buffer solution to start enzyme reaction. After 30 minutes of reaction, 100 μl of 0.1M citric acid buffer (pH 4.2) was added to terminate the reaction, and the fluorescence of 4-methylumbelliferone (excitation wavelength: 355 nm, fluorescence wavelength: 460 nm) produced by the reaction was measured with a fluorescence plate reader (Labsystems, Fluoroskan Asent CF).
An inhibitory activity of the sample was determined as IC50, or the amount of the sample which gave […] of inhibition compared to the activity of control (distilled water).

A short description of data set [2]: Solubility of purified compound. In kind it is physicochemical. As to conditions: purified white powder. From the text:
The product obtained from oxidative polymerization reaction may be purified by conventional methods such as chromatography. […] Therefore, this compound is suitable for use in, for example, foods and/or beverages, and pharmaceutical drugs as an active lipase inhibitory ingredient for suppressing absorption of dietary lipids, thereby suppressing the rise of blood triglyceride or decreasing increased blood triglyceride.

By IC50 is commonly meant the concentration at which inhibition is half-maximal.

Regarding `O=C(O[C@@H]1Cc2c(O)cc(O)cc2O[C@@H]1C1=CC(=O)C2(O)Oc3c(O)c(O)cc([C@H]4Oc5cc(O)cc(O)c5C[C@H]4OC(=O)c4cc(O)c(O)c(O)c4)c3C12)c1cc(O)c(O)c(O)c1` (some centres unmarked) [OTNG, oolongtheanin-3′-O-gallate], the values for the IC50 in data set [1] and in data set [1] (value in brackets) were 67.8 nM and 68 nM, respectively. For the same compound, the solubility entry in data set [2] is “soluble in water, methanol and DMSO”.

On to “epigallocatechin-3-O-gallate [EGCG, reference compound]”, for which, in data set [1], the “lipase inhibitory activity IC50” value worked out at 0.16 µg/mL. This compound also gave an IC50 in data set [1] (value in brackets) of 349 nM.
